According to ChEMBL document CHEMBL6109117, “Synthesis of an RBM39 Degrader That Downregulates CEP192 and Induces Disorganized Spindle Structures” (J Med Chem, 2025):

Test system: HCT-116
Assay: Induction of spliceosome function impairment in human HCT-116 cells assessed as fold increase in NCKAP1L RI transcript at 1 to 10 uM incubated for 12 hrs by qRT-PCR analysis relative to control
Assay type: functional
Conditions: dose 1-10 µM

Question: For Cc1ccc(NS(=O)(=O)c2cccc(NC(=O)C(=O)N3CCC[C@@H]3CO)c2)c2[nH]cc(C#N)c12, which “fold change (FC)” value is on record?
Answer: The value was 3.
